Laboratory results reported in PMC4501720 (PLoS ONE, 2015).

Tested on: whole blood cells of group 3 pigs vaccinated with BCG-pAg85A
Assay type: cell-based, pigs (Sus scrofa domestica)

Substance | IFN-γ levels, BCG / pAg85A animal number 1 | IFN-γ levels, BCG / pAg85A animal number 2 | IFN-γ levels, BCG / pAg85A animal number 3 | IFN-γ levels, BCG / pAg85A animal number 4 | IFN-γ levels, BCG / pAg85A animal number 5 | IFN-γ levels, BCG / pAg85A animal number 6
201–220: synthetic overlapping peptide of mature Ag85A, aa 201–220 (IANNTRVWVYCGNGKPSDLG; UniProt P9WQP3 244-263, looked up, fragment) | 21 pg/mL | <5 pg/mL | 1,315 pg/mL | <5 pg/mL | <5 pg/mL | 197 pg/mL
211–230: synthetic overlapping peptide of mature Ag85A, aa 211–230 (CGNGKPSDLGGNNLPAKFLE; UniProt P9WQP3 254-273, looked up, fragment) | 46 pg/mL | <5 pg/mL | 13 pg/mL | <5 pg/mL | <5 pg/mL | 218 pg/mL
221–240: synthetic overlapping peptide of mature Ag85A, aa 221–240 (GNNLPAKFLEGFVRTSNIKF; UniProt P9WQP3 264-283, looked up, fragment) | 470 pg/mL | 4,455 pg/mL | 1,075 pg/mL | <5 pg/mL | 303 pg/mL | 2,980 pg/mL
231–250: synthetic overlapping peptide of mature Ag85A, aa 231–250 (GFVRTSNIKFQDAYNAGGGH; UniProt P9WQP3 274-293, looked up, fragment) | 11,639 pg/mL | 13,693 pg/mL | 423 pg/mL | <5 pg/mL | 1,018 pg/mL | 665 pg/mL
241–260: synthetic overlapping peptide of mature Ag85A, aa 241–260 (QDAYNAGGGHNGVFDFPDSG; UniProt P9WQP3 284-303, looked up, fragment) | 40 pg/mL | <5 pg/mL | <5 pg/mL | <5 pg/mL | <5 pg/mL | 66 pg/mL
251–270: synthetic overlapping peptide of mature Ag85A, aa 251–270 (NGVFDFPDSGTHSWEYWGAQ; UniProt P9WQP3 294-313, looked up, fragment) | 410 pg/mL | 317 pg/mL | <5 pg/mL | 11 pg/mL | 161 pg/mL | 163 pg/mL
261–280: synthetic overlapping peptide of mature Ag85A, aa 261–280 (THSWEYWGAQLNAMKPDLQR; UniProt P9WQP3 304-323, looked up, fragment) | 31 pg/mL | <5 pg/mL | <5 pg/mL | 157 pg/mL | 728 pg/mL | 1,240 pg/mL
